# Test results from ChEMBL document CHEMBL4602659, “β,β-Dimethylacrylshikonin Induces Apoptosis in Melanoma Cell Lines by NOXA Upregulation” (J Nat Prod, 2020).
# Active and inactive are the calls of the source. No cut-off for these calls is given here.
# Columns and labels:
# SBcl2 [1] = experiment: Cytotoxicity against human SBcl2 cells harboring NRAS Q61I mutant assessed as reduction in cell viability after 72 hrs by EZ4U reagent based spectrophotometric method; assay type: functional; details: SBcl2, 72 h
# WM164 [2] = experiment: Cytotoxicity against human WM164 cells harboring BRAF V600E mutant assessed as reduction in cell viability after 48 hrs by EZ4U reagent based spectrophotometric method; assay type: functional; details: WM164, 48 h
# MRC5 [3] = experiment: Cytotoxicity against human MRC5 cells assessed as reduction in cell viability after 48 hrs by EZ4U reagent based spectrophotometric method; assay type: functional
# MRC5 [4] = experiment: Cytotoxicity against human MRC5 cells assessed as reduction in cell viability after 72 hrs by EZ4U reagent based spectrophotometric method; assay type: functional
# MUGMel1 [5] = experiment: Induction of apoptosis in human MUGMel1 cells assessed as early apoptotic cells at IC50 concentration after 6 hrs by Annexin V/SYTOX Green based flow cytometric analysis (reference value: 2.55%); assay type: functional
# MUGMel2 [6] = experiment: Induction of apoptosis in human MUGMel2 cells assessed as late apoptotic cells at IC50 concentration after 6 hrs by Annexin V/SYTOX Green based flow cytometric analysis (reference value: 5.69%); assay type: functional
# MUGMel2 [7] = experiment: Induction of apoptosis in human MUGMel2 cells assessed as necrotic cells at IC50 concentration after 6 hrs by Annexin V/SYTOX Green based flow cytometric analysis (reference value: 0.3%); assay type: functional
# SBcl2 [8] = experiment: Induction of apoptosis in human SBcl2 cells assessed as viable cells at IC50 concentration after 6 hrs by Annexin V/SYTOX Green based flow cytometric analysis (reference value: 80.68%); assay type: functional
# WM164 [9] = experiment: Induction of apoptosis in human WM164 cells assessed as early apoptotic cells at IC50 concentration after 6 hrs by Annexin V/SYTOX Green based flow cytometric analysis (reference value: 3.01%); assay type: functional
# WM793 [10] = experiment: Induction of apoptosis in human WM793 cells assessed as late apoptotic cells at IC50 concentration after 6 hrs by Annexin V/SYTOX Green based flow cytometric analysis (reference value: 0.71%); assay type: functional
# MUGMel1 [11] = experiment: Induction of apoptosis in human MUGMel1 cells assessed as viable cells at IC50 concentration after 24 hrs by Annexin V/SYTOX Green based flow cytometric analysis (reference value: 95.13%); assay type: functional
# MUGMel2 [12] = experiment: Induction of apoptosis in human MUGMel2 cells assessed as late apoptotic cells at IC50 concentration after 24 hrs by Annexin V/SYTOX Green based flow cytometric analysis (reference value: 9.64%); assay type: functional
# SBcl2 [13] = experiment: Induction of apoptosis in human SBcl2 cells assessed as viable cells at IC50 concentration after 24 hrs by Annexin V/SYTOX Green based flow cytometric analysis (reference value: 73.08%); assay type: functional
# SBcl2 [14] = experiment: Induction of apoptosis in human SBcl2 cells assessed as late apoptotic cells at IC50 concentration after 24 hrs by Annexin V/SYTOX Green based flow cytometric analysis (reference value: 22.96%); assay type: functional
# SBcl2 [15] = experiment: Induction of apoptosis in human SBcl2 cells assessed as necrotic cells at IC50 concentration after 24 hrs by Annexin V/SYTOX Green based flow cytometric analysis (reference value: 0.21%); assay type: functional
# WM164 [16] = experiment: Induction of apoptosis in human WM164 cells assessed as viable cells at IC50 concentration after 24 hrs by Annexin V/SYTOX Green based flow cytometric analysis (reference value: 94.62%); assay type: functional
# WM164 [17] = experiment: Induction of apoptosis in human WM164 cells assessed as early apoptotic cells at IC50 concentration after 24 hrs by Annexin V/SYTOX Green based flow cytometric analysis (reference value: 2.72%); assay type: functional
# WM793 [18] = experiment: Induction of apoptosis in human WM793 cells assessed as late apoptotic cells at IC50 concentration after 24 hrs by Annexin V/SYTOX Green based flow cytometric analysis (reference value: 0.66%); assay type: functional
# B16-F0 [19] = experiment: Cytotoxicity against mouse B16F0 cells assessed as reduction in cell viability after 24 hrs by MTT assay; assay type: functional, cell-based; details: B16F0, 24 h
# B16-F0 [20] = experiment: Cytotoxicity against mouse B16F0 cells assessed as reduction in cell viability after 48 hrs by MTT assay; assay type: functional, cell-based; details: B16F0, 48 h
# SBcl2 [21] = experiment: Induction of apoptosis in human SBcl2 cells assessed as increase in caspase -3 activity at IC50 concentration after 24 hrs by Alexa Fluor 647 antibody based flow cytometric analysis; assay type: functional, cell-based
# WM164 [22] = experiment: Induction of apoptosis in human WM164 cells assessed as increase in caspase -3 activity at IC50 concentration after 24 hrs by Alexa Fluor 647 antibody based flow cytometric analysis; assay type: functional, cell-based
# MUGMel1 [23] = experiment: Induction of apoptosis in human MUGMel1 cells assessed as increase in caspase -3 activity at IC50 concentration after 24 hrs in presence of caspase -inhibitor by Alexa Fluor 647 antibody based flow cytometric analysis; assay type: functional, cell-based
# MUGMel1 [24] = experiment: Induction of apoptosis in human MUGMel1 cells assessed as up regulation of NOXA at IC50 concentration after 6 to 24 hrs by RT-qPCR analysis relative to control; assay type: functional
# SBcl2 [25] = experiment: Antitumour activity against human SBcl2 cells xenografted in NU(NCr)-Foxn1 mouse assessed as increase in fibrosis at 2 ug/g administered for three consecutive days with 1 day interval for four cycle by hematoxylin and eosin staining based microscopic analysis; assay type: functional, cell-based
# WM793 [26] = experiment: Induction of apoptosis in human WM793 cells assessed as up regulation of NOXA protein expression at IC50 concentration after 24 hrs by Western blot analysis; assay type: functional, cell-based
# MUGMel1 [27] = experiment: Induction of apoptosis in human MUGMel1 cells assessed as up regulation of NOXA protein expression at IC50 concentration after 24 hrs by Western blot analysis; assay type: functional, cell-based
# WM164 [28] = experiment: Induction of apoptosis in human WM164 cells assessed as effect on BAD mRNA expression at IC50 concentration after 6 to 24 hrs by RT-qPCR analysis; assay type: functional, cell-based
# WM164 [29] = experiment: Induction of apoptosis in human WM164 cells assessed as up regulation of PUMA at IC50 concentration after 6 to 24 hrs by RT-qPCR analysis; assay type: functional, cell-based
# SBcl2 [30] = experiment: Induction of apoptosis in human SBcl2 cells assessed as up regulation of BCL2 at IC50 concentration after 6 to 24 hrs by RT-qPCR analysis; assay type: functional, cell-based
# SBcl2 [31] = experiment: Induction of apoptosis in human SBcl2 cells treated with scrambled si-RNA assessed as caspase -activity at IC50 concentration after 24 hrs by Western blot analysis; assay type: functional, cell-based
# WM164 [32] = experiment: Induction of apoptosis in human WM164 cells assessed as effect on BAX protein expression at IC50 concentration after 24 hrs by Western blot analysis; assay type: functional, cell-based
# MUGMel2 [33] = experiment: Induction of apoptosis in human MUGMel2 cells assessed as effect on BAX protein expression at IC50 concentration after 24 hrs by Western blot analysis; assay type: functional, cell-based
# MUGMel1 [34] = experiment: Induction of apoptosis in human MUGMel1 cells assessed as effect on PUMA protein expression at IC50 concentration after 24 hrs by Western blot analysis; assay type: functional, cell-based
# SBcl2 [35] = experiment: Antitumour activity against human SBcl2 cells xenografted in NU(NCr)-Foxn1 mouse assessed as decrease in tumour size at 2 ug/g administered for three consecutive days with 1 day interval for four cycle; assay type: functional, cell-based
smiles,measurement,setting,value
CC(C)=CC[C@@H](OC(=O)C=C(C)C)C1=CC(=O)c2c(O)ccc(O)c2C1=O [DIMETHYLACRYLSHIKONIN],IC50,SBcl2 [1],1.2 µM
same,IC50,WM164 [2],3 µM
same,IC50,MRC5 [3],Not Active
same,IC50,MRC5 [4],Not Active
same,Activity,MUGMel1 [5],3.51%
same,Activity,MUGMel2 [6],13.53%
same,Activity,MUGMel2 [7],0.39%
same,Activity,SBcl2 [8],21.29%
same,Activity,WM164 [9],2.47%
same,Activity,WM793 [10],5.72%
same,Activity,MUGMel1 [11],49.48%
same,Activity,MUGMel2 [12],43.89%
same,Activity,SBcl2 [13],8.43%
same,Activity,SBcl2 [14],77.12%
same,Activity,SBcl2 [15],0%
same,Activity,WM164 [16],75.03%
same,Activity,WM164 [17],12.85%
same,Activity,WM793 [18],2.78%
same,IC50,B16-F0 [19],1.2 to 5.1 µM
same,IC50,B16-F0 [20],1.2 to 5.1 µM
same,Activity,SBcl2 [21],Active
same,Activity,WM164 [22],Active
same,Activity,MUGMel1 [23],inactive
same,fold change (FC),MUGMel1 [24],2.4
same,Activity,SBcl2 [25],Active
same,Activity,WM793 [26],inactive
same,Activity,MUGMel1 [27],Active
same,Activity,WM164 [28],inactive
same,Activity,WM164 [29],Active
same,Activity,SBcl2 [30],Active
same,Activity,SBcl2 [31],inactive
same,Activity,WM164 [32],inactive
same,Activity,MUGMel2 [33],inactive
same,Activity,MUGMel1 [34],inactive
same,Activity,SBcl2 [35],inactive
